Key:
Test in all cases: PDSP radioligand assay
Assay type in all cases: binding
PBR = molecular target: T1, PBR (Rattus norvegicus, UniProt P16257)
T1 construct: purchased NIMH Psychoactive Drug Screening Program (PDSP)

D1 = D1 (Homo sapiens, UniProt P21728)
Description: (§1) The ex vivo binding affinities of σRs of CNY‐01 and CNY‐02 were measured using a competitive radioligand binding assay.^[ [35] ^]
(§2) Details of individual binding assay conditions and protocols are available at the NIMH PDSP website: https://pdsp.unc.edu/pdspweb/.

5-HT1A = molecular target: T2, 5-HT1A (Homo sapiens, UniProt P08908)
T2 construct: purchased NIMH Psychoactive Drug Screening Program (PDSP)
T2 sequence (P08908 whole entry): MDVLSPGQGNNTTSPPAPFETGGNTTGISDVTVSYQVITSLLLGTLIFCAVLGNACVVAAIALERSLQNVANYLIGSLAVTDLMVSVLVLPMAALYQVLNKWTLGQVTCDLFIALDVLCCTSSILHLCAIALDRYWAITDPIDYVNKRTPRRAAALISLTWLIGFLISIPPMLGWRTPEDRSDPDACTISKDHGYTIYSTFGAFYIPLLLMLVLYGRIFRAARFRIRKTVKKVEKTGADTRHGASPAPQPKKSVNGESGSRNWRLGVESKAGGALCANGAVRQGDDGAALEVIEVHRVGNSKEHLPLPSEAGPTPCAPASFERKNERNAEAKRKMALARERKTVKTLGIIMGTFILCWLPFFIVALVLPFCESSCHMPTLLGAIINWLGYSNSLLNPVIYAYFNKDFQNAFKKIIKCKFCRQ
Description: as §1, §2

5-HT2A = 5-HT2A (Homo sapiens, UniProt P28223)
Sequence of 5-HT2A (P28223 whole entry, species assumed): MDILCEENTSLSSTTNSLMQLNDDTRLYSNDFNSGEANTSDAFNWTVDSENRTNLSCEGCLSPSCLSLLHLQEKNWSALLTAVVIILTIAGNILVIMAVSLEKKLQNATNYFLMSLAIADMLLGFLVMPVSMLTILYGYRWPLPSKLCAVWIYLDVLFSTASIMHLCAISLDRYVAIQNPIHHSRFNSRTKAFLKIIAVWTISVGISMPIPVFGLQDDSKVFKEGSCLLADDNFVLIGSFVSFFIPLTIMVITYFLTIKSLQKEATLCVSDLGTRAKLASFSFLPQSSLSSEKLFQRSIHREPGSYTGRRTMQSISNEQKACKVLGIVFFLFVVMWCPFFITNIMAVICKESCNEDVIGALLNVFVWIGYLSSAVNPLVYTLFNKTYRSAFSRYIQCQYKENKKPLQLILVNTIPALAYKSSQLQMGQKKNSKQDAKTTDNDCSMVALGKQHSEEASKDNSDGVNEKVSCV
Description: as §1, §2

H2 = H2 (Homo sapiens, UniProt P25021)
Sequence of H2 (P25021 whole entry): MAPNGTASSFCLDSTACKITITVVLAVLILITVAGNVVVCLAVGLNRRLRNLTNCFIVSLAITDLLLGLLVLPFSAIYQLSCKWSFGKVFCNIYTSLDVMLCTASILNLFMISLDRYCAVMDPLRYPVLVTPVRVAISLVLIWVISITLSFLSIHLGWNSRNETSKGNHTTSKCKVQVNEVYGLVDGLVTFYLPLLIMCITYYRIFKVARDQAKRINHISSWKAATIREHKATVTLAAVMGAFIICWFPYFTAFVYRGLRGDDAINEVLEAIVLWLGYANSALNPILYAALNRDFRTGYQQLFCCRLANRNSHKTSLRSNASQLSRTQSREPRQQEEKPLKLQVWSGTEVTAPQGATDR
Description: as §1, §2

Beta2 = molecular target: T3, Beta2 (Homo sapiens, UniProt P07550)
T3 construct: purchased NIMH Psychoactive Drug Screening Program (PDSP)
Description: as §1, §2

D2 = molecular target: T4, D2 (Homo sapiens, UniProt P14416)
T4 construct: purchased NIMH Psychoactive Drug Screening Program (PDSP)
Description: as §1, §2

H4 = molecular target: T5, H4 (Homo sapiens, UniProt Q9H3N8)
T5 construct: purchased NIMH Psychoactive Drug Screening Program (PDSP)
Description: as §1, §2

BZP Rat Brain Site = conditions: 10 µM
Description: as §1, §2

5-HT1D = 5-HT1D (Homo sapiens, UniProt P28221)
Sequence of 5-HT1D (P28221 whole entry, species assumed): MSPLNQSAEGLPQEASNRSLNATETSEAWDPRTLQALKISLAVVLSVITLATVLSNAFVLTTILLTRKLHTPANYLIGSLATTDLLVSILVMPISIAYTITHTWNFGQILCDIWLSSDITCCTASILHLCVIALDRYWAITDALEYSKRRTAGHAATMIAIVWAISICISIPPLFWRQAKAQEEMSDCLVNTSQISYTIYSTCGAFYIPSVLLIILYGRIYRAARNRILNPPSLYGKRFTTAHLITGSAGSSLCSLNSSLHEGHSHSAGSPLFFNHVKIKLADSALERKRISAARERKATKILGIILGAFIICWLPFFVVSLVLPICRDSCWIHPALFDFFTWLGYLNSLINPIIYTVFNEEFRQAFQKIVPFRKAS
Description: as §1, §2

M2 = molecular target: T6, M2 (Homo sapiens, UniProt P08172)
T6 construct: purchased NIMH Psychoactive Drug Screening Program (PDSP)
Description: as §1, §2

DAT = molecular target: T7, DAT (Homo sapiens, UniProt Q01959)
T7 construct: purchased NIMH Psychoactive Drug Screening Program (PDSP)
T7 sequence (Q01959 whole entry): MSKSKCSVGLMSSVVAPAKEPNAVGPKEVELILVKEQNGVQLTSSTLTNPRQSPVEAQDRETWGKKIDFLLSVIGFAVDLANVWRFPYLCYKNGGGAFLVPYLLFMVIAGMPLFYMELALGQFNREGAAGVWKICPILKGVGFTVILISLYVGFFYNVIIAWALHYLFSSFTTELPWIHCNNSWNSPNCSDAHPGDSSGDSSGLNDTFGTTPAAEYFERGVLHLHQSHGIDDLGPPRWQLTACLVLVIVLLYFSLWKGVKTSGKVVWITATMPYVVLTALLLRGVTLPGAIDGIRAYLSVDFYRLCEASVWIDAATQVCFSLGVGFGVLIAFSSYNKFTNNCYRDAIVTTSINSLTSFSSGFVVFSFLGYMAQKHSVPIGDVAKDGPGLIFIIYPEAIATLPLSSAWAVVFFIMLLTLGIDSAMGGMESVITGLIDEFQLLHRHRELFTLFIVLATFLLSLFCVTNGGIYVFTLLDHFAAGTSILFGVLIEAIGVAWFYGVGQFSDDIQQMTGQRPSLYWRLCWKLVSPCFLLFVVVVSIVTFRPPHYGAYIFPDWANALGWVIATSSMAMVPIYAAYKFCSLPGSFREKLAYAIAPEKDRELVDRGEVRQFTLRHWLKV
Description: as §1, §2

H1 = H1 (Homo sapiens, UniProt P35367)
Sequence of H1 (P35367 whole entry): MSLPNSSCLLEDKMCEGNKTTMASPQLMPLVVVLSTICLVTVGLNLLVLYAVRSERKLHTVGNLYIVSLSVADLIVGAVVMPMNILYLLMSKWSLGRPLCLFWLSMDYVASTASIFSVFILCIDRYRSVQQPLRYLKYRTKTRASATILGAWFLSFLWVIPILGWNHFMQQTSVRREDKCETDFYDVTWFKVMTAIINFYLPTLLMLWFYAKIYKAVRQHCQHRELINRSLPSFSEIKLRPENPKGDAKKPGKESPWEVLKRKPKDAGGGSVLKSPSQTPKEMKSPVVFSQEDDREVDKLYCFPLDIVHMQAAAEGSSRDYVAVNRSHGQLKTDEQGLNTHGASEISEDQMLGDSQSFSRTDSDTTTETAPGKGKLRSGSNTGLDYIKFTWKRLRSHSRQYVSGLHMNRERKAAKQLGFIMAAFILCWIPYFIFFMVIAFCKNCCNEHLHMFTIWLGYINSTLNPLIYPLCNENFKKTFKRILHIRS
Description: as §1, §2

D3 = D3 (Homo sapiens, UniProt P35462)
Sequence of D3 (P35462 whole entry): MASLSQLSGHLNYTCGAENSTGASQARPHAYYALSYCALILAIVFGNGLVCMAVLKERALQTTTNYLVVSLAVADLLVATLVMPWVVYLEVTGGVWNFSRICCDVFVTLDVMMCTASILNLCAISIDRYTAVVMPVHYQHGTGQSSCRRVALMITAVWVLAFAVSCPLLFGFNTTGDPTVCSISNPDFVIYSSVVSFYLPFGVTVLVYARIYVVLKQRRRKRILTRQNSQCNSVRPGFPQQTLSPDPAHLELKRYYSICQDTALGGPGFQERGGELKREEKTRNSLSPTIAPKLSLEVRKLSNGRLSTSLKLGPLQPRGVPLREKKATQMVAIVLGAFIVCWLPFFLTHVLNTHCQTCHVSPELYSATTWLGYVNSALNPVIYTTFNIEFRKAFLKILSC
Description: as §1, §2

5-HT7A = 5-HT7A (Homo sapiens, UniProt P34969)
Sequence of 5-HT7A (P34969 1-445 isoform P34969-2): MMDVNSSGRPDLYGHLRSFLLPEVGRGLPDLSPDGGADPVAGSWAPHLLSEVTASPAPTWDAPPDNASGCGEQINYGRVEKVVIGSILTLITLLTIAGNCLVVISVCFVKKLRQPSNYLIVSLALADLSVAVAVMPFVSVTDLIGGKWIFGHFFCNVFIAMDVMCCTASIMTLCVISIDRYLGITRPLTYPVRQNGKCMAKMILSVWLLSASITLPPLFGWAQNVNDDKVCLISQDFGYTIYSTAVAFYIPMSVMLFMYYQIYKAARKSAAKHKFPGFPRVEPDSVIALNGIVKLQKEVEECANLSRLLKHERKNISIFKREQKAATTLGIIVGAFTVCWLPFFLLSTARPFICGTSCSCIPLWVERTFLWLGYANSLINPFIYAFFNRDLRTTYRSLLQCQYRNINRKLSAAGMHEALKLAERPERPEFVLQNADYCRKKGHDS
Description: as §1, §2

DOR = molecular target: T8, DOR (Homo sapiens, UniProt P41143)
T8 construct: purchased NIMH Psychoactive Drug Screening Program (PDSP)
Description: as §1, §2

5-HT3 = molecular target: T9, 5-HT3 (Homo sapiens, UniProt P46098)
T9 construct: purchased NIMH Psychoactive Drug Screening Program (PDSP)
T9 sequence (P46098 24-478): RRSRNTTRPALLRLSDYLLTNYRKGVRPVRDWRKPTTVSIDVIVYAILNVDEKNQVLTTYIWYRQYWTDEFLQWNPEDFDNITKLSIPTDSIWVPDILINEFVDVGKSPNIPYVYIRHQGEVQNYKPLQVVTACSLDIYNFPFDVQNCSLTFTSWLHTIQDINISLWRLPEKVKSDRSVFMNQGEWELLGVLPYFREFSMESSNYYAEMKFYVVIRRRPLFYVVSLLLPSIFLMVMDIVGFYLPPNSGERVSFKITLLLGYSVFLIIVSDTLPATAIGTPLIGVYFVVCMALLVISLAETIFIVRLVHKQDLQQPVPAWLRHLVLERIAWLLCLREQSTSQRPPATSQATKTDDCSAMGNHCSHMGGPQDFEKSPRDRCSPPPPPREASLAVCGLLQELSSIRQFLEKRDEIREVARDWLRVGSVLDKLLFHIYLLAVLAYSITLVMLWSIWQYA
Description: as §1, §2

GABAA = conditions: 10 µM
Description: as §1, §2

5-HT2B = 5-HT2B (Homo sapiens, UniProt P41595)
Sequence of 5-HT2B (P41595 whole entry, species assumed): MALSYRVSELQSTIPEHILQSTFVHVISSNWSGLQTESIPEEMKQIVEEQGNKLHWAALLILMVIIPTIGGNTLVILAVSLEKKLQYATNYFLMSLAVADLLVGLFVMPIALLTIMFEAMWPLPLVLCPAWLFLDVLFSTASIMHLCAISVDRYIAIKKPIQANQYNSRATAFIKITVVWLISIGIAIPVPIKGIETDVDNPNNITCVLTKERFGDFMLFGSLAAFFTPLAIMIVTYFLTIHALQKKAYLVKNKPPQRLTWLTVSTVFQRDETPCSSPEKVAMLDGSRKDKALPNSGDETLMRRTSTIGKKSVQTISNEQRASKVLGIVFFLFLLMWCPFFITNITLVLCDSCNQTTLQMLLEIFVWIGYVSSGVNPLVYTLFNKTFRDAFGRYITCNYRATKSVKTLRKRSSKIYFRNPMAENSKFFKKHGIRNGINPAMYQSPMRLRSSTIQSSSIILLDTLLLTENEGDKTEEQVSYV
Description: as §1, §2

Alpha1D = molecular target: T10, Alpha1D (Homo sapiens, UniProt P25100)
T10 construct: purchased NIMH Psychoactive Drug Screening Program (PDSP)
Description: as §1, §2

5-HT2C = molecular target: T11, 5-HT2C (Homo sapiens, UniProt P28335)
T11 sequence (P28335 33-458): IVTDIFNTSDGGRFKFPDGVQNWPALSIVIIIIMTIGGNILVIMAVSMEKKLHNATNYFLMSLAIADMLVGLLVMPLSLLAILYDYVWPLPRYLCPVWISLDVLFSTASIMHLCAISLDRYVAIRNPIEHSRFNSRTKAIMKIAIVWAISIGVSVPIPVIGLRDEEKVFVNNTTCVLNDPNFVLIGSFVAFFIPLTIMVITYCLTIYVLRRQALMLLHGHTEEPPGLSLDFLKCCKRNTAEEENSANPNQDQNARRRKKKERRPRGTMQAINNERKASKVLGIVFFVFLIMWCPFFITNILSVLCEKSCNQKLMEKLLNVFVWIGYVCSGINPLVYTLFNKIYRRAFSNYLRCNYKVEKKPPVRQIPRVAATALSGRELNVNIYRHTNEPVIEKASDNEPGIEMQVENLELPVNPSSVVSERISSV
Description: as §1, §2

Alpha2B = molecular target: T12, Alpha2B (Homo sapiens, UniProt P18089)
T12 sequence (P18089 1-450): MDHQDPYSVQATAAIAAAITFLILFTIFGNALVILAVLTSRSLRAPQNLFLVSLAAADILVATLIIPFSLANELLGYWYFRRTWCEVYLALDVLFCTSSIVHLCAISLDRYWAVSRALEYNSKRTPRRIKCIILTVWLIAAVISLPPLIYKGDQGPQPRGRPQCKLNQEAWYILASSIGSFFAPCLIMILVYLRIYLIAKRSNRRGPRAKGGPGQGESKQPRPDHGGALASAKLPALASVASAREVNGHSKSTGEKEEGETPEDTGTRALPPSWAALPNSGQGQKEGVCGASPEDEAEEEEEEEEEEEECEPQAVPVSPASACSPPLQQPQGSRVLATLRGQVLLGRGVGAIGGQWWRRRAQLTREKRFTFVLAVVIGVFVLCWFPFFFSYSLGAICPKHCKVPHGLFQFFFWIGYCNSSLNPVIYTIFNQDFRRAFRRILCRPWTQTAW
Description: as §1, §2

5-HT6 = molecular target: T13, 5-HT6 (Homo sapiens, UniProt P50406)
T13 construct: purchased NIMH Psychoactive Drug Screening Program (PDSP)
Description: as §1, §2

5-HT5A = molecular target: T14, 5-HT5A (Homo sapiens, UniProt P47898)
T14 construct: purchased NIMH Psychoactive Drug Screening Program (PDSP)
Description: as §1, §2

Sequence of D1 (P21728 whole entry): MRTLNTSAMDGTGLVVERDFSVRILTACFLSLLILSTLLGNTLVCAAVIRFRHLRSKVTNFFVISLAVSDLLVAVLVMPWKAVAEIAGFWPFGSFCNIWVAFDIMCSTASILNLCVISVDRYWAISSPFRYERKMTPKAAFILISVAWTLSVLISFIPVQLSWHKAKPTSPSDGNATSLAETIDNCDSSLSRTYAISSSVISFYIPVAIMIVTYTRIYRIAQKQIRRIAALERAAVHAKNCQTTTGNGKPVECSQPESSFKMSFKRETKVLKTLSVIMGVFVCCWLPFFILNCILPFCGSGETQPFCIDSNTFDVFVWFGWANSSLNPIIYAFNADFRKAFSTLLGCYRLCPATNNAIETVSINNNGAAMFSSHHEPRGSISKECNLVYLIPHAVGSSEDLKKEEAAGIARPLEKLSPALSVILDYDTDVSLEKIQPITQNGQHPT

SMILES | inhibition at 10 µM (PBR) [%] | inhibition at 10 µM (D1) [%] | inhibition at 10 µM (5-HT1A) [%] | inhibition at 10 µM (5-HT2A) [%] | Ki (H2) [µM] | inhibition at 10 µM (H2) [%] | inhibition at 10 µM (Beta2) [%] | inhibition at 10 µM (D2) [%] | inhibition at 10 µM (H4) [%] | Mean % (inhibition) (BZP Rat Brain Site) [%] | Ki (5-HT1D) [µM] | inhibition at 10 µM (5-HT1D) [%] | inhibition at 10 µM (M2) [%] | inhibition at 10 µM (DAT) [%] | inhibition at 10 µM (H1) [%] | Ki (D3) [µM] | inhibition at 10 µM (D3) [%] | inhibition at 10 µM (5-HT7A) [%] | inhibition at 10 µM (DOR) [%] | inhibition at 10 µM (5-HT3) [%] | further results
Cc1nc(-c2ccc(Cl)cc2)nc(OCCCN2CCN(C)CC2)c1Cl [CNY-02, 5‐chloro‐2‐(4‐chlorophenyl)‐4‐methyl‐6‐(3‐(4‐methylpiperazin‐1‐yl)propoxy)pyrimidine] | 26 | 52.1 | -2.49 | 85.5 | 1.24 | 84.9 | 11.7 | -0.57 | 23.3 | 23.26 | 7.28 | 54.5 | 29.1 | 33.8 | 43.7 | 4.91 | 66.1 | -4.02 | 1.3 | -1.23 | Ki (D1): 2.34 µM; Ki (5-HT2A): 0.466 µM; Mean % (inhibition) (GABAA): 32.06%; Ki (5-HT2B): 0.53 µM; inhibition at 10 µM (5-HT2B): 90.4%; inhibition at 10 µM (Alpha1D): -14.8%; Ki (5-HT2C): 0.268 µM; inhibition at 10 µM (5-HT2C): 89.4%; Ki (Alpha2B): 3.39 µM; inhibition at 10 µM (Alpha2B): 68.4%; inhibition at 10 µM (5-HT6): 28.1%; inhibition at 10 µM (5-HT5A): 29.4%
COc1ccc(-c2nc(C)c(Cl)c(OCCCN3CCCCC3)n2)cc1 [CNY-01, 5‐chloro‐2‐(4‐methoxyphenyl)‐4‐methyl‐6‐(3‐(piperidin‐1‐yl)propoxy)pyrimidine] | 25.8 | 19 | 17.5 | 36.3 | 0.709 | 89.7 | 4.03 | 4.43 | 24 | 10.99 | 2.67 | 91.9 | 36.4 | 20.9 | 93.2 | 0.521 | 65.8 | 59.3 | 3.77 | 7.61 | Ki (H1): 0.667 µM; Ki (5-HT7A): 4.7 µM; Mean % (inhibition) (GABAA): 25.49%; Ki (5-HT2B): 0.914 µM; inhibition at 10 µM (5-HT2B): 77.1%; inhibition at 10 µM (Alpha1D): 23%; inhibition at 10 µM (5-HT2C): -5.06%; Ki (Alpha2B): 1.35 µM; inhibition at 10 µM (Alpha2B): 93.1%; inhibition at 10 µM (5-HT6): 30.1%; inhibition at 10 µM (5-HT5A): 31.9%

Source: paper PMC12140300, “Development of Carbon‐11 Labeled Pyrimidine Derivatives as Novel Positron Emission Tomography (PET) Agents Enabling Brain Sigma‐1 Receptor Imaging” (Advanced Science, 2025)
